Target: T1, human recombinant COX-2 (Homo sapiens, UniProt P35354)
T1 construct: purchased Cayman Chemical
T1 sequence (P35354 18-604): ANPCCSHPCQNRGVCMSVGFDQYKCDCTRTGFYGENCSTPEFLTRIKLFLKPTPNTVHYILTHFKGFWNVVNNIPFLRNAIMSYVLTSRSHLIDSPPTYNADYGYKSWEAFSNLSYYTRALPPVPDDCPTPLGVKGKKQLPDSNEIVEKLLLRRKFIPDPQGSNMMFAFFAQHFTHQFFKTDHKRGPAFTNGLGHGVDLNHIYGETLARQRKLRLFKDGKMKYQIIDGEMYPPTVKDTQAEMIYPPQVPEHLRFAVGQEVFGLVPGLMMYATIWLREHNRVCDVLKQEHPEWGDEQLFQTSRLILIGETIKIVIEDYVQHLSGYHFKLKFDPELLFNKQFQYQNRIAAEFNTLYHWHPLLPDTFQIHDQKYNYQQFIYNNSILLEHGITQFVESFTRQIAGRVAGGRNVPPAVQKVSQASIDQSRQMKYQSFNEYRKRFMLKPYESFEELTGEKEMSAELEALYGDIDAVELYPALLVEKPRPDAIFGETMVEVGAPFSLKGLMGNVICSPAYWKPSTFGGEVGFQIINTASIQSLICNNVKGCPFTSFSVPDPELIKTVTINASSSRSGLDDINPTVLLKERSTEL
Assay: Cyclooxygenase assay (oxygen electrode), COX-2
Type: biochemical
Conditions: estimated from one inhibitor point at 20 µM; 100 µM AA
Protocol: Cyclooxygenase activity assay was performed as previously described. Approximately 3 µg of either ovine COX-1 (COX-1) or human recombinant COX-2 (COX-2) (Cayman Chemical) were added to buffer containing 0.1 M Tris-HCl buffer (pH 8.0), 5 mM EDTA, 2 mM phenol and 1 µM hematin at 37°C. The selected inhibitors were added to the reaction cell, followed by an incubation of 5 minutes with either of the COX enzymes. The reaction was then initiated by adding 100 µM AA in the reaction cell, as indicated in enzymatic protocol (Cayman Chemicals). Data were collected using a Hansatech DW1 oxygen electrode and the consumption of oxygen was recorded. Indomethacin and the solvent (DMSO), were used as positive and negative controls, respectively, and the percent inhibition of the enzyme was calculated by comparing the rates of the samples to the controls.

| IC50 | Structure (SMILES) |
| --- | --- |
| > 100 µM | Clc1ccc(-c2nnc(C3CCCCC3)o2)cc1 [MLS000545091] |
| > 100 µM | Cc1ccc(CSc2ncn(-c3ccccc3)n2)cc1 [MLS000536924] |
